Measured values as given in paper PMC10045483, “Comparative Pharmacokinetic Study of 5 Active Ingredients after Oral Administration of Zuogui Pill in Osteoporotic Rats with Different Syndrome Types” (International Journal of Analytical Chemistry, 2023).
Where two headings read alike, the source gives them in different places.

Experiments:
[1] = Pharmacokinetic study of 5 compounds in rat plasma after oral administration of Zuogui Pill extract (HPLC-MS/MS, noncompartmental analysis); assay type: in vivo, Female Sprague-Dawley rats; settings: oral Zuogui Pill extract 1.5 mL/100 g; for Cmax / Tmax / half-life / CL/F / MRT last / MRT inf: female, Sprague-Dawley, rat, po, 1.5 mL/100 g; for Cmax / Tmax / half-life / AUC0–t / AUC0–∞: n = 6; for CL/F: n = 6, read-out: CL_F_obs (converted); for MRT last: n = 6, read-out: MRT0–t; for MRT inf: n = 6, read-out: MRT0–∞
Method: Female Sprague-Dawley rats (180–220 g) were purchased from Shanghai Laboratory Animal Centre (Shanghai, China). The rats were maintained in a standard environment (22 ± 1°C, 60 ± 10% relative humidity, and a 12 h light/dark cycle) for one week to acclimate and fed water and food ad libitum. Twenty-four rats were divided randomly into […] and treated through ovary enucleation to establish the model of osteoporosis. Ten weeks after operation, osteoporosis models of kidney-yang-deficiency and kidney-yin-deficiency were established by intramuscular injection of hydrocortisone (25 mg/kg) and intragastric administration of thyroxine suspension (160 mg/kg) for 10 days, respectively. The femur of two rats from each group was then stained with hematoxylin and eosin (H&E) to assess histopathological change. Also, the validation of osteoporosis kidney-yang-deficiency and kidney-yin-deficiency models was judged by detecting the level of cyclic adenosine monophosphate (cAMP) and cyclic guanosine monophosphate (cGMP) in rat plasma. Laboratory Animal Management and Ethics Committee of Zhejiang Chinese Medical University approved all animal treatments (ZSLL-2014-48).
One hundred microliters of plasma was mixed with 100 μL of the IS solution, followed by 700 μL of methanol:acetonitrile (1 : 1). After 2 min of vortex mixing, the mixture was spun for 15 min at 8000 rpm and 4°C. The supernatants were collected and dried in a high-purity N2 environment. The residues were redissolved in 100 μL methanol and centrifuged for 15 min at 13000 rpm and 4°C. Finally, an aliquot of 10 μL supernatants was used to conduct the analysis.
Four groups of rats were orally administered with Zuogui Pill extract at a dose of 1.5 mL/100 g. Then, 0.3 mL blood samples were collected from orbital veins at 0, 0.08, 0.17, 0.25, 0.5, 1, 2, 4, 6, 8, 12, and 24 h after administration, placed in an anticoagulant tube, and centrifuged for 15 min at 5000 rpm and 4°C. The plasma was prepared and stored at −20°C until analysis.
Phoenix WinNonlin 6.4 software was used to estimate pharmacokinetic parameters using noncompartmental analysis. Furthermore, SPSS 26 software was used to compute comparisons of the pharmacokinetic data among the four groups according to a one-way ANOVA. The results are presented as mean ± SD.

[2] = Stability of analytes in rat plasma (QC samples) under storage conditions; settings: n = 5; for Stability, Room temperature for 4 h, Mean: 25°C; for Stability, Three freeze-thaw cycles, Mean: −20°C to 25°C
Method: QC samples at three levels using five replicates were used to evaluate the stability under the following conditions: 4 h at room temperature (25°C), 24 h in autosampler (4°C), and three freeze-thaw cycles (−20°C to 25°C).

[3] = osteoporosis rats (ovariectomized)
[4] = osteoporotic rats with kidney-yang-deficiency
[5] = osteoporotic rats with kidney-yin-deficiency
[6] = high QC (800, 16000, 3200, 400, 40 ng/mL in the same order)
[7] = low QC (2, 40, 8, 1, 0.1 ng/mL for chlorogenic acid, loganin, morroniside, aucubin, protocatechuic aldehyde)
[8] = middle QC (40, 800, 160, 20, 2 ng/mL in the same order)

COC(=O)C1=CO[C@@H](O[C@@H]2O[C@H](CO)[C@@H](O)[C@H](O)[C@H]2O)[C@@H]2[C@@H](C)[C@@H](O)C[C@H]12 [Loganin, loganin]
Cmax ([1]; normal rats): 13500 ± 2030 ng/mL
Tmax ([1]; normal rats): 0.25 h
half-life ([1]; normal rats): 4.51 ± 0.45 h
CL/F ([1]; normal rats): 6.03 mL/min/kg
MRT last ([1]; normal rats): 4.58 ± 0.47 h
MRT inf ([1]; normal rats): 5.1 ± 0.41 h
Cmax [1, 3]: 8380 ± 1120 ng/mL
Tmax [1, 3]: 0.25 h
half-life [1, 3]: 2.74 ± 0.96 h
CL/F [1, 3]: 7.67 mL/min/kg
MRT last [1, 3]: 4.91 ± 1.29 h
MRT inf [1, 3]: 5.02 ± 1.34 h
Cmax [1, 4]: 14.7 ± 1.38 ng/mL
Tmax [1, 4]: 0.21 ± 0.05 h
half-life [1, 4]: 5.62 ± 1.63 h
CL/F [1, 4]: 4280 mL/min/kg
MRT last [1, 4]: 5.5 ± 0.67 h
MRT inf [1, 4]: 6.62 ± 0.49 h
Cmax [1, 5]: 16000 ± 2790 ng/mL
Tmax [1, 5]: 0.25 h
half-life [1, 5]: 3.75 ± 0.7 h
CL/F [1, 5]: 2.94 mL/min/kg
MRT last [1, 5]: 6.51 ± 0.91 h
MRT inf [1, 5]: 6.92 ± 0.98 h
AUC0–t ([1]; normal rats): 20134.29 ± 3958.79 h∗ng/mL
AUC0–∞ ([1]; normal rats): 20523.97 ± 3947.05 h∗ng/mL
AUC0–t [1, 3]: 17912.12 ± 6898.16 h∗ng/mL
AUC0–∞ [1, 3]: 17998.56 ± 6945.75 h∗ng/mL
AUC0–t [1, 5]: 41028.61 ± 6356.26^∗∗ h∗ng/mL
AUC0–∞ [1, 5]: 41727.10 ± 6203.34^∗∗ h∗ng/mL
Stability, Room temperature for 4 h, Mean [2, 6]: 85.6%
Stability, Room temperature for 4 h, Mean [2, 7]: 88.3%
Stability, Room temperature for 4 h, Mean [2, 8]: 87.4%
Stability, Autosampler at 4°C for 24 h, Mean [2, 6]: 84.4%
Stability, Autosampler at 4°C for 24 h, Mean [2, 7]: 94.6%
Stability, Autosampler at 4°C for 24 h, Mean [2, 8]: 85.8%
Stability, Three freeze-thaw cycles, Mean [2, 6]: 92.4%
Stability, Three freeze-thaw cycles, Mean [2, 7]: 86.4%
Stability, Three freeze-thaw cycles, Mean [2, 8]: 89.5%

COC(=O)C1=CO[C@@H](O[C@@H]2O[C@H](CO)[C@@H](O)[C@H](O)[C@H]2O)[C@@H]2[C@H](C)O[C@@H](O)C[C@H]12 [Morroniside, morroniside]
Cmax ([1]; normal rats): 1720 ± 410 ng/mL
Tmax ([1]; normal rats): 0.29 ± 0.1 h
half-life ([1]; normal rats): 3.66 ± 1.18 h
CL/F ([1]; normal rats): 49.4 mL/min/kg
MRT last ([1]; normal rats): 3.41 ± 0.33 h
MRT inf ([1]; normal rats): 3.66 ± 0.48 h
Cmax [1, 3]: 1110 ± 163 ng/mL
Tmax [1, 3]: 0.26 ± 0.02 h
half-life [1, 3]: 2.4 ± 0.51 h
CL/F [1, 3]: 59.2 mL/min/kg
MRT last [1, 3]: 4.37 ± 0.43 h
MRT inf [1, 3]: 4.51 ± 0.38 h
Cmax [1, 4]: 1450 ± 337 ng/mL
Tmax [1, 4]: 0.19 ± 0.04 h
half-life [1, 4]: 3.83 ± 0.64 h
CL/F [1, 4]: 59.4 mL/min/kg
MRT last [1, 4]: 4.68 ± 0.24 h
MRT inf [1, 4]: 5.03 ± 0.33 h
Cmax [1, 5]: 1750 ± 321 ng/mL
Tmax [1, 5]: 0.24 ± 0.03 h
half-life [1, 5]: 2.9 ± 0.65 h
CL/F [1, 5]: 28.3 mL/min/kg
MRT last [1, 5]: 5.08 ± 0.74 h
MRT inf [1, 5]: 5.21 ± 0.78 h
AUC0–t ([1]; normal rats): 2151.00 ± 498.88 h∗ng/mL
AUC0–∞ ([1]; normal rats): 2171.33 ± 509.45 h∗ng/mL
AUC0–t [1, 3]: 1724.77 ± 149.05 h∗ng/mL
AUC0–∞ [1, 3]: 1741.55 ± 136.08 h∗ng/mL
AUC0–t [1, 4]: 1726.42 ± 217.11 h∗ng/mL
AUC0–∞ [1, 4]: 1750.35 ± 215.20 h∗ng/mL
AUC0–t [1, 5]: 3764.53 ± 842.38^∗∗ h∗ng/mL
AUC0–∞ [1, 5]: 3782.41 ± 832.52^∗∗ h∗ng/mL
Stability, Room temperature for 4 h, Mean [2, 6]: 98.3%
Stability, Room temperature for 4 h, Mean [2, 7]: 90.8%
Stability, Room temperature for 4 h, Mean [2, 8]: 86.1%
Stability, Autosampler at 4°C for 24 h, Mean [2, 6]: 95.0%
Stability, Autosampler at 4°C for 24 h, Mean [2, 7]: 89.6%
Stability, Autosampler at 4°C for 24 h, Mean [2, 8]: 87.6%
Stability, Three freeze-thaw cycles, Mean [2, 6]: 89.8%
Stability, Three freeze-thaw cycles, Mean [2, 7]: 93.0%
Stability, Three freeze-thaw cycles, Mean [2, 8]: 91.5%
